Results as given in patent publication EP1928451B1, “METHODS FOR TREATING SUBSTANCE-RELATED DISORDERS” (SK Biopharmaceuticals Co., LTD, priority 2005, dated 2007).

Assays:
[1] = test system: selectively-bred alcohol preferring (P) rats; experiment: Acute administration: two-bottle choice alcohol intake in alcohol preferring rats; format: in vivo; settings: dose of about 45 mg/kg and up, oral
Procedure: (§1) A compound of the present invention was tested in ethanol preferring rats, a model for acute and chronic drug addiction in humans using an adaptation of a published method (See, Rezvani, AH et al. Alcohol & Alcoholism, Vol. 25, No. 5, pp. 573-575, 1990, Rezvani AH, et al., Alcohol and Alcoholism (Oxford), 2000, 35(1), 76-83).
(§2) An enantiomer of Formula (Ib) was orally administered in a dose range of from about 10 to about 90 mg/kg in test and control treatment groups of 10 rats per group over a period of 14 days. Test conditions reflected approaches for evaluating patterns of drinking (e.g., single or multiple events).
Adult male selectively-bred alcohol preferring (P) rats were used. […]
(§3) Establishment of baseline alcohol intake: Alcohol intake was determined using a standard two-bottle choice method (as described in Murphy et al. 1988; McBride et al. 1990; Rezvani et al. 1990, 1991, 1993, 1995, 1997, Rezvani and Grady, 1994).
Animals were first given free access to water in a graduated Richter tube for 1 day. […] Water and alcohol intake was recorded at 6 and 24 hour after the treatment, food intake was measured at 24 hour. Animal body weight was measured every day. […]
The results were presented as means ±SEM (Standard Error of the Means). […] Statistical differences between treatment and control groups were determined by using ANOVA and Turkey Student's t test for multiple comparisons.

[2] = test system: selectively-bred alcohol preferring (P) rats; experiment: Chronic administration: two-bottle choice alcohol intake in alcohol preferring rats; format: in vivo
Procedure: as §1, §2
Adult male selectively-bred alcohol preferring (P) rats were used. The selectively-bred alcohol-preferring (P) rats have been characterized and have been widely used to study the effects of different compounds on voluntary alcohol intake (Rezvani et al, 1990, 1991, 1992a, 1992b, 1999, 2000, 2002; 2003; Murphy et al, 1988; Overstreet et al., 1992, 1999; Li and McBride, 1995).
Rats were housed individually in wire mesh cages under a constant room temperature of 22 +1 °C and 12:12 light-dark cycle (8:00-20:00, dark). Animal were fed Agway Prolab Rat/Mouse/ Hamster 3000 formula and water ad libitum.
as §3
Animals were first given free access to water in a graduated Richter tube for 1 day. After the first day, the animals were given access to only a solution of 10% (v/v) ethanol for 3 consecutive days. During this period animals became accustomed to drinking from Richter tubes and to the taste and pharmacological effects of alcohol. Thereafter, they were given free access to both water and a solution of 10% alcohol for at least 3 consecutive weeks and throughout of the period of study. The rats had free access to food. Water and alcohol intake was recorded at 6 and 24 hour after the treatment, food intake was measured at 24 hour. Animal body weight was measured every day.
The effect of chronic administration of a test compound on alcohol intake and tolerance to the anti-craving effects of the test compound was tested in naïve rats treated (via gavage tube) once a day either vehicle or test compound. A test compound dose of 45 mg/Kg was selected as an effective dose for chronic administration based on the results of the acute administration study phase. Themost effective dose was then used for the chronic adminstiration phase and administered for 14 consecutive days. Alcohol and water intake was recorded 6 and 24 h after each treatment administration and food intake was recorded at 24 hr.
The results were presented as means ±SEM (Standard Error of the Means). Alcohol intake (g/kg) was calculated by multiplying the volume of alcohol consumed in mL by 10% and 0.7893 (a factor representing ethanol density)/body weight in kg. Alcohol preference, expressed as percentage, was calculated as follows (volume of alcohol consumed (mL)/total fluid intake (mL)) x 100 (as described in Rezvani and Grady,. 1994; Rezvani et al., 1997). Statistical differences between treatment and control groups were determined by using ANOVA and Turkey Student's t test for multiple comparisons.

[3] = BL (baseline, before treatment), drug group
[4] = Day 1, 45 mg/Kg once a day via gavage
[5] = Day 2, 45 mg/Kg once a day via gavage
[6] = Day 3, 45 mg/Kg once a day via gavage
[7] = Day 4, 45 mg/Kg once a day via gavage
[8] = Day 5, 45 mg/Kg once a day via gavage
[9] = Day 6, 45 mg/Kg once a day via gavage
[10] = Day 7, 45 mg/Kg once a day via gavage
[11] = Day 8, 45 mg/Kg once a day via gavage
[12] = Day 9, 45 mg/Kg once a day via gavage
[13] = Day 10, 45 mg/Kg once a day via gavage
[14] = Day 11, 45 mg/Kg once a day via gavage
[15] = Day 12, 45 mg/Kg once a day via gavage
[16] = Day 13, 45 mg/Kg once a day via gavage
[17] = Day 14, 45 mg/Kg once a day via gavage

## NC(=O)OC[C@@H](O)c1ccccc1Cl [Drug]
[1]
  effect on alcohol intake: significant effect on alcohol intake
[2]; 45 mg/Kg once a day for 14 consecutive days
  tolerance for the test compound's affect on ethanol intake: without developing a tolerance
[2]; [3]
  Alcohol Intake: 5.30 g/kg
  Alcohol Pref: 71%
  Body Weight: 384 g
  Water Intake: 30 g/kg
[2]; [4]
  Alcohol Intake: 1.61 g/kg
  Alcohol Pref: 28%
  Body Weight: 418 g
  Water Intake: 62 g/kg
[2]; [5]
  Alcohol Intake: 1.31 g/kg
  Alcohol Pref: 24%
  Body Weight: 415 g
  Water Intake: 60 g/kg
[2]; [6]
  Alcohol Intake: 1.37 g/kg
  Alcohol Pref: 24%
  Body Weight: 413 g
  Water Intake: 60 g/kg
[2]; [7]
  Alcohol Intake: 1.03 g/kg
  Alcohol Pref: 16%
  Body Weight: 415 g
  Water Intake: 68 g/kg
[2]; [8]
  Alcohol Intake: 1.24 g/kg
  Alcohol Pref: 21%
  Body Weight: 419 g
  Water Intake: 68 g/kg
[2]; [9]
  Alcohol Intake: 1.10 g/kg
  Alcohol Pref: 21%
  Body Weight: 421 g
  Water Intake: 61 g/kg
[2]; [10]
  Alcohol Intake: 1.85 g/kg
  Alcohol Pref: 34%
  Body Weight: 424 g
  Water Intake: 48 g/kg
[2]; [11]
  Alcohol Intake: 2.21 g/kg
  Alcohol Pref: 35%
  Body Weight: 426 g
  Water Intake: 52 g/kg
[2]; [12]
  Alcohol Intake: 2.19 g/kg
  Alcohol Pref: 45%
  Body Weight: 429 g
  Water Intake: 40 g/kg
[2]; [13]
  Alcohol Intake: 3.06 g/kg
  Alcohol Pref: 52%
  Body Weight: 431 g
  Water Intake: 44 g/kg
[2]; [14]
  Alcohol Intake: 2.93 g/kg
  Alcohol Pref: 57%
  Body Weight: 435 g
  Water Intake: 30 g/kg
[2]; [15]
  Alcohol Intake: 2.67 g/kg
  Alcohol Pref: 58%
  Body Weight: 436 g
  Water Intake: 27 g/kg
[2]; [16]
  Alcohol Intake: 2.37 g/kg
  Alcohol Pref: 42%
  Body Weight: 431 g
  Water Intake: 48 g/kg
[2]; [17]
  Alcohol Intake: 2.32 g/kg
  Alcohol Pref: 40%
  Body Weight: 437 g
  Water Intake: 54 g/kg
